Reference: the NIST ThermoML archive (doi:10.1016/j.jct.2004.04.010)
Numbers after ± are expanded uncertainties.

Test: mn = molality of the nth substance listed, in mol/kg
Details: 298.15 K, 101.3 kPa, Liquid

mass density (m1 = 0.2) [kg/m3] | mass density (m1 = 0.4) [kg/m3] | mass density (m1 = 0.6) [kg/m3] | mass density (m1 = 0.8) [kg/m3] | mass density (m1 = 1) [kg/m3] | mass density (m1 = 1.2) [kg/m3] | mass density (m1 = 0.015) [kg/m3] | mass density (m1 = 0.03) [kg/m3] | mass density (m1 = 0.05) [kg/m3] | mass density (m1 = 0.075) [kg/m3] | mass density (m1 = 0.1) [kg/m3] | Compound
1010.68 ± 0.22 | 1023.7 ± 0.28 | 1036.15 ± 0.33 | 1047.98 ± 0.39 | 1059.4 ± 0.45 | 1070.22 ± 0.5 | – | – | – | – | – | O=C[C@H](O)[C@@H](O)[C@@H](O)[C@H](O)CO [(+)-galactose] + O
– | – | – | – | – | – | 998.969 ± 0.14 | 1000.88 ± 0.14 | 1003.43 ± 0.14 | 1006.61 ± 0.14 | 1009.77 ± 0.15 | [Cl-].[Cs+] [cesium chloride] + O
1008.06 ± 0.2 | 1018.64 ± 0.22 | 1028.67 ± 0.23 | 1038.38 ± 0.24 | 1047.69 ± 0.24 | 1056.36 ± 0.27 | – | – | – | – | – | O=C[C@@H](O)[C@H](O)[C@H](O)CO [D-(-)-arabinose] + O
1007.72 ± 0.21 | 1017.95 ± 0.26 | 1027.8 ± 0.3 | 1037.28 ± 0.35 | 1046.38 ± 0.39 | 1055.19 ± 0.44 | – | – | – | – | – | O=C[C@H](O)[C@@H](O)[C@H](O)CO [D-xylose] + O
